Measured values reported in PMC10897196, “Structure–activity characteristics of phenylalanine analogs selectively transported by L-type amino acid transporter 1 (LAT1)” (Scientific Reports, 2024).
Where two headings read alike, the source gives them in different places.

Assays:
human LAT1 [1] = biological target: T1, human LAT1 (Homo sapiens, UniProt Q01650); assay: Inhibition of L-[14C]leucine uptake in HEK293-hLAT1 cells; format: cell-based; details: for Ki: L-[14C]leucine uptake
T1 construct: expressed in transfected cells
From the text: In this study, we used the HEK293 cells stably expressing human LAT1 or human LAT2, which form a heterodimeric complex with endogenous 4F2hc (CD98hc), required for plasma membrane localization. We first explored the impact of halogen group positioning in the benzene ring of Phe (Fig. 1) on its interaction with LAT1 and LAT2. […] We conducted inhibition experiments to measure the uptake of L-[^14C]leucine by LAT1 and L-[^14C]alanine by LAT2 in the presence or absence of Phe derivatives with an iodo group at position 2, 3, or 4 in the benzene ring.
The inhibition experiments were performed as described previously. HEK293-hLAT1 (1.5 × 10^5 cells/well) or HEK293-hLAT2 (2 × 10^5 cells/well) cells were plated onto poly-D-lysine-coated 24-well plates (Corning, New York, USA). Following a 2-day culture period, the uptake of 1 μM L-[^14C]leucine or L-[^14C]alanine was measured for 1 min in the absence or presence of non-radiolabeled test compounds at concentrations of 10, 30, and 100 μM. Radioactivity was quantified using a β-scintillation counter (LSC-3100; Aloka, Tokyo, Japan), and protein concentrations were determined with a Micro BCA Protein Assay Kit (Thermo Fisher Scientific, Rockford, IL). To calculate Ki values, the concentration-dependent uptake of L-[^14C]leucine or L-[^14C]alanine was analyzed in the presence and absence of test compounds[49]. The data were plotted against substrate concentration and fitted to Michaelis–Menten kinetics. Ki values were derived using nonlinear regression analysis with the enzyme kinetics inhibition module in GraphPad Prism software (Version 10.0.2; GraphPad Software Inc., San Diego, CA, USA).

human LAT1 [2] = biological target: T1, human LAT1; assay: Efflux of pre-loaded L-[14C]leucine from HEK293-hLAT1 cells induced by extracellular compounds; format: cell-based; details: 1 min
Experimental: We evaluated the efflux of pre-loaded L-[^14C]leucine from LAT1 and pre-loaded L-[^14C]alanine from LAT2 induced by extracellularly applied compounds.
Efflux experiments were performed as described previously. Cells cultured 48 h were pre-loaded with 5 μM L-[^14C]leucine or L-[^14C]alanine for 10 min at 37 °C. The cells were then washed, and the efflux was induced by incubating cells for 1 min in either the absence or presence of non-radiolabeled test compounds at indicated concentrations. The efflux time of 1 min fell within the linear range of time-dependent substrate efflux mediated by LAT1 and LAT2 (Supplementary Fig. S2). Following incubation, the medium was collected and radioactivity was measured in both the medium and the cells. Efflux was quantified as the percentage of radioactivity released into the medium, calculated using the formula: radioactivity of medium/(radioactivity of medium + radioactivity of cells) × 100%.
The kinetic parameters for the efflux of L-[^14C]leucine or L-[^14C]alanine induced by various concentrations of extracellularly-applied test compounds were analyzed. The baseline efflux values—those obtained in the absence of test compounds—were subtracted from the values measured in the presence of the compounds. The resultant data were fitted to Michaelis–Menten kinetics to determine the Km and Vmax by nonlinear regression analysis using “enzyme kinetics-velocity as a function of substrate” module within GraphPad Prism software.

[3] = Plasma concentration-time profile in normal mice after intravenous administration; format: in vivo; details: C57BL/6J mice, i.v., 15, 30, 60, 120 min; 2-F-Tyr 15.6 mg/kg, bicyclic-Phe 15 mg/kg
Experimental: The blood samples were collected at 15, 30, 60, and 120 min post-administration into lithium heparin-coated tubes (BD, New Jersey, USA) and then centrifuged at 1,500 ×g for 10 min at 23 °C. The resulting plasma was stored at −80 °C pending analysis by HPLC.
HPLC analyses were conducted as previously described. In brief, tumors and small intestines were homogenized in ice-cold PBS (3 times the tissue weight, v/w). The homogenates were then centrifuged at 15,000 ×g for 40 min at 4 °C. A 10 μL aliquot of the tissue supernatant or plasma was mixed with 190 μL of acetonitrile (MeCN) to precipitate proteins. This mixture was subsequently centrifuged at 15,000 ×g for 30 min at 4 °C. The resulting supernatant (100 μL) was dried, and the residue was reconstituted in 20 μL of 400 mM sodium borate (pH 8.0). Finally, 5 μL of 40 mM 4-fluoro-7-nitro-2,1,3-benzoxadiazole (NBD-F) in MeCN was added for fluorescence derivatization. HPLC analysis was carried out using a NANOSPACE SI-2 HPLC system (Shiseido, Tokyo, Japan) equipped with a fluorescence detector. […] The mobile phase consisted of MeCN, water, and trifluoroacetic acid (TFA) in a 27.5:72.5:0.05 (v/v/v) ratio, delivered at a flow rate of 200 μL/min.

[4] = LAT1, L-[14C]leucine efflux, mean ± S.E.M., n = 3

T1 sequence (Q01650 whole entry): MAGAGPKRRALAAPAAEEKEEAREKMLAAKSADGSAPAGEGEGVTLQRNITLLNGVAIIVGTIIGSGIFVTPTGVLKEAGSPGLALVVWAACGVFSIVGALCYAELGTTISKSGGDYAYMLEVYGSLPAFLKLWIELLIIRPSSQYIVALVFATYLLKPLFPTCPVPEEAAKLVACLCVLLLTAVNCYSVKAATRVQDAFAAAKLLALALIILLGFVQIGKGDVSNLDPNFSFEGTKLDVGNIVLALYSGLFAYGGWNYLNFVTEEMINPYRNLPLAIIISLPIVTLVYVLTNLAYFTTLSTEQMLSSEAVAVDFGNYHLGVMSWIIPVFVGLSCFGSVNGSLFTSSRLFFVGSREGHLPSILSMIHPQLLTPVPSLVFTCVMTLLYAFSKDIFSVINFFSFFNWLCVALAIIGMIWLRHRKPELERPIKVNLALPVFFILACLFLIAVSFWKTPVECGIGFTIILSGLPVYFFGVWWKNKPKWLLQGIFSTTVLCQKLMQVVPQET
T1 sequence (P08195 102-630 partner): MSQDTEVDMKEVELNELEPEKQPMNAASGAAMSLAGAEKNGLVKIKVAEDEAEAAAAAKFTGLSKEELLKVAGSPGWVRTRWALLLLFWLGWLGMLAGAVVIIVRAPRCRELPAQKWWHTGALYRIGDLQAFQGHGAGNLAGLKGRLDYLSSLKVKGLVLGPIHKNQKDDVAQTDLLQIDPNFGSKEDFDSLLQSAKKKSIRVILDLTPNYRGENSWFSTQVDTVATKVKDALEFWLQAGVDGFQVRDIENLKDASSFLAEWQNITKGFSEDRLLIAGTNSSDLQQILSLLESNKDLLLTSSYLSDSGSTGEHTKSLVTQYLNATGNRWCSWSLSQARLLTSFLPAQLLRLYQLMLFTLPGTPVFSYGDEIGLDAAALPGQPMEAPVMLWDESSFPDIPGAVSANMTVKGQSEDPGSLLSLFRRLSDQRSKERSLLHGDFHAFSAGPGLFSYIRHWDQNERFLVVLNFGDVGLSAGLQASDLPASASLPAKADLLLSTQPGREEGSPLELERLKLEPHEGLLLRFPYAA

N[C@]1(C(=O)O)CCc2ccccc2C1 [bicyclic-Phe, (R)-2-amino-1,2,3,4-tetrahydro-2-naphthoic acid]
Inhibition of LAT1-mediated L-[14C]leucine uptake (in words, rank order) (human LAT1 [1]; 1 μM L-[14C]leucine, 1 min, compounds at 10, 30, 100 μM): inhibit
Ki (human LAT1 [1]; Ki for LAT1 calculated at 100 μM of compound, HEK293-hLAT1, inhibitor at 100 μM): 78.2 ± 13.9 µM
Ki (human LAT1 [1]; Ki for LAT1 calculated at 300 μM of compound, HEK293-hLAT1, inhibitor at 300 μM): 66.7 ± 7.08 µM
Mode of inhibition of LAT1 (Lineweaver–Burk plot) (human LAT1 [1]; L-[14C]leucine 50, 100, 200, 400 μM): competitive manner
Ki (human LAT1 [1]; HEK293-hLAT1, mean ± S.E.M., n = 3–4, read-out: Ki (μM) LAT1): 78.2 ± 13.9 µM
Ki ratio (LAT2/LAT1) (human LAT1 [1]; LAT1 selectivity, LAT2 Ki over LAT1 Ki): 47.98
Km (human LAT1 [2]; [4]): 27.3 ± 3.08 µM
Vmax of efflux (% radioactivity/min) (human LAT1 [2]; [4]): 15.43 ± 0.40 % radioactivity/min
LAT1-mediated L-[14C]leucine efflux induced (in words) (human LAT1 [2]; compounds at 10, 30, 100 μM): transported by LAT1 as substrates
Plasma concentration (in words) [3]: consistently showing higher levels than 2-F-Tyr
